Test results reported in patent publication US8242275B2, “Bicyclic pyrazole compounds as antibacterial agents” (Janssen Pharmaceutica NV, priority 2005, dated 2012).
≈ marks a conversion by molar mass, not a printed value.

Legend:
[1] = molecular target: T1, E. coli DNA gyrase (Escherichia coli, UniProt P0AES4+P0AES6); assay: DNA gyrase inhibition assay (supercoiling); format: biochemical; details: E. coli DNA gyrase supercoiling, visual inspection of gels; read-out: DNA Gyrase IC50 (converted)
T1 construct: purchased John Innes Enterprises Ltd. (John Innes Centre, UK)
Description: Inhibition of the supercoiling activity of E. coli DNA gyrase was determined using enzymes, buffers and substrates received from John Innes Enterprises Ltd. (John Innes Centre, UK). The reactions were performed according to the manufacturer's directions, with the following modifications.
DNA supercoiling reactions were carried out in a total reaction volume of 20 μL containing 250 ng of relaxed pBR322, 35 mM Tris-HCl (pH 7.5), 24 mM KCl, 4 mM MgCl2, 2 mM dithiothreitol, 1.8 mM spermidine, 1 mM ATP, 6.5% glycerol and 100 μg/mL albumin. Compounds diluted in 10% DMSO were added to the reaction mixture to reach a final concentration of 0.5% DMSO. Enzyme was diluted to […] in a solution of 50 mM Tris-HCl (pH 7.5), 100 mM KCl, 2 mM dithiothreitol, 1 mM EDTA, and 50% glycerol. Diluted enzyme (0.2 unit) was added to each reaction.
The reactions were incubated at 37° C. for 30 min. The reactions were then cooled to 0° C., followed by addition of 3 μL of 40% glycerol, 100 mM Tris-HCl (pH 7.5), 50 mM EDTA, 0.5% SDS and 0.1% bromophenol blue. Samples were separated on 1.0% agarose gels. Gels were stained with Ethidium bromide and photographed with a Stratagene Eagle Eye II.

[2] = tested on: E. coli KL-16 (GSC strain 4245); assay: In vitro antibacterial activity (MIC assay), broth microdilution; format: cell-based; details: Escherichia coli
Description: (§1) Minimal inhibitory concentration (MIC) has been an indicator of in vitro antibacterial activity widely used in the art. The in vitro antibacterial activity of the compounds was determined by the broth microdilution method described by the National Committee for Clinical Laboratory Standards (NCCLS) in the NCCLS Document M7-A5, Vol. 20, No. 2, “Methods for Dilution Antimicrobial Susceptibility Test for Bacteria that Grow Aerobically—Fifth Edition”, which is incorporated herein by reference.
(§2) In this method, an aliquot of test compound from an 11-point series of 2-fold serial dilutions of compounds in 100% DMSO was added to wells in microdilution plates. The test organisms were prepared by adjusting the turbidity of actively growing broth cultures so that the final concentration of test organism after addition to wells with or without compounds was approximately 5×10^5 CFU/mL.
(§3) Following inoculation of the microdilution plates, the plates were incubated at 35° C. for 16-24 h and then scored for bacterial growth. […] The amount of growth in the wells containing the test compound was compared with the amount of growth in the growth-control wells (no test compound used) in each plate, and with the amount of growth in the wells containing control compounds (such as ciprofloxacin). Compounds of the present invention were tested against several bacterial strains. The MIC values (in μg/mL) are presented in Table 1 for Gram-negative (E. coli KL-16 (GSC strain 4245); data marked as (*) was obtained with E. coli ATCC25922) and Gram-positive bacteria (S. aureus ATCC13709; S. pneumoniae ATCC49619).

[3] = tested on: S. aureus ATCC13709; assay: as above; format: cell-based; details: Staphylococcus aureus, ATCC13709; read-out: S. aureus ATCC13709 MIC
Description: as §1, §2, §3

[4] = tested on: S. pneumoniae ATCC49619; assay: as above; format: cell-based; details: Streptococcus pneumoniae, ATCC49619; read-out: S. pneumoniae ATCC49619 MIC
Description: as §1, §2, §3

T1 sequence (P0AES4 whole entry, one chain of several): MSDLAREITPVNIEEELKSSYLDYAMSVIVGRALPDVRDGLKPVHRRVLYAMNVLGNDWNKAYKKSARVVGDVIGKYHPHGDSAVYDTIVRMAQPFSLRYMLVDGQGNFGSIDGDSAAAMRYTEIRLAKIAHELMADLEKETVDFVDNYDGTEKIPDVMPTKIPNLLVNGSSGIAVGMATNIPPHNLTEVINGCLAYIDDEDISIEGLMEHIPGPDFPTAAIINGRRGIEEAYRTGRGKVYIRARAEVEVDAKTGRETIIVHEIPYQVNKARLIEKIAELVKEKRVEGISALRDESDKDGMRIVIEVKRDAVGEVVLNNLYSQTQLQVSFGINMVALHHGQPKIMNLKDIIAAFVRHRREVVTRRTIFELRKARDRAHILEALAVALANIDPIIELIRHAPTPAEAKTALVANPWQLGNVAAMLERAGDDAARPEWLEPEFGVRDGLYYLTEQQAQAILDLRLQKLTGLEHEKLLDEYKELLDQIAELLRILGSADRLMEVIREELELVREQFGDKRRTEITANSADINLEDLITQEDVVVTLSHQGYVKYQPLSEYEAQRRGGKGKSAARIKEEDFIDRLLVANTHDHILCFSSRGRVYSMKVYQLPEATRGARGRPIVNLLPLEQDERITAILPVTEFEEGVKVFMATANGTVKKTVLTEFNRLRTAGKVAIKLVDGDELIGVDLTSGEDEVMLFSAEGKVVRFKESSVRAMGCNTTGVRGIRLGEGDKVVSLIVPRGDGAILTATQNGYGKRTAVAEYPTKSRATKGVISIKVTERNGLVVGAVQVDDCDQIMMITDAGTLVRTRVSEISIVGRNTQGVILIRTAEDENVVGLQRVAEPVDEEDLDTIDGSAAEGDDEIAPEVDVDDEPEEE

| Compound | IC50 [1] [µM] | MIC [2] [µg/mL] | MIC [3] [µg/mL] | MIC [4] [µg/mL] |
| --- | --- | --- | --- | --- |
| COc1ccc2nccc(-n3cc4c(n3)CCC(N(CC(=O)O)Cc3ccc5c(c3)NC(=O)CS5)C4)c2n1 (centres unmarked) [Example 68, [[2-(6-Methoxy-[1,5]naphthyridin-4-yl)-4,5,6,7-tetrahydro-2H-indazol-5-yl]-(3-oxo-3,4-dihydro-2H-benzo[1,4]thiazin-6-ylmethyl)-amino]-acetic acid] | 1.88 | > 128 | 8 (≈ 15.1 µM) | 8 (≈ 15.1 µM) |
| COc1ccc2nccc(-n3cc4c(n3)CCC(NC(=O)c3ccc5c(c3)OCCN5C)C4)c2c1 (centres unmarked) [Example 79, 4-Methyl-3,4-dihydro-2H-benzo[1,4]oxazine-7-carboxylic acid [2-(6-methoxy-quinolin-4-yl)-4,5,6,7-tetrahydro-2H-indazol-5-yl]-amide] | > 34.1 | > 128 | 4 (≈ 8.52 µM) | 8 (≈ 17 µM) |
| COc1ccc2nccc(-n3cc4c(n3)CCC(NC(=O)c3cc5c(cc3Cl)SCC(=O)N5)C4)c2n1 (centres unmarked) [Example 6, 7-Chloro-3-oxo-3,4-dihydro-2H-benzo[1,4]thiazine-6-carboxylic acid [2-(6-methoxy-[1,5]naphthyridin-4-yl)-4,5,6,7-tetrahydro-2H-indazol-5-yl]-amide] | 0.23 | 2 (≈ 3.84 µM) | < 0.125 | 4 (≈ 7.68 µM) |
| CCN(CC)c1ccc(CNC2CCc3nn(-c4ccnc5ccc(OC)nc45)cc3C2)cc1 (centres unmarked) [Example 85, (4-Diethylamino-benzyl)-[2-(6-methoxy-[1,5]naphthyridin-4-yl)-4,5,6,7-tetrahydro-2H-indazol-5-yl]-amine] | 4.38 | 64 (≈ 140 µM) | 8 (≈ 17.5 µM) | 8 (≈ 17.5 µM) |
| COc1ccc2nccc(-n3cc4c(n3)CCC(NCC(=O)Nc3ccc(C)cc3)C4)c2n1 (centres unmarked) [Example 60, 2-[2-(6-Methoxy-[1,5]naphthyridin-4-yl)-4,5,6,7-tetrahydro-2H-indazol-5-ylamino]-N-p-tolyl-acetamide] | > 36.2 | > 128 | 1 (≈ 2.26 µM) | 8 (≈ 18.1 µM) |
| COc1ccc2nccc(-n3cc4c(n3)CCC(NC(=O)c3cc5c(cc3Cl)SCC(=O)N5)C4)c2c1 (centres unmarked) [Example 20, 7-Chloro-3-oxo-3,4-dihydro-2H-benzo[1,4]thiazine-6-carboxylic acid [2-(6-methoxy-quinolin-4-yl)-4,5,6,7-tetrahydro-2H-indazol-5-yl]-amide] | 0.962 | 2 (≈ 3.85 µM) | < 0.125 | 2 (≈ 3.85 µM) |
| O=C1CSc2ccc(C(=O)NC3CCc4c(cnn4-c4cc(C(F)(F)F)nc5c(C(F)(F)F)cccc45)C3)cc2N1 (centres unmarked) [Example 96, 3-Oxo-3,4-dihydro-2H-benzo[1,4]thiazine-6-carboxylic acid [1-(2,8-bis-trifluoromethyl-quinolin-4-yl)-4,5,6,7-tetrahydro-1H-indazol-5-yl]-amide] | > 6.76 | 64 (≈ 108 µM) | 8 (≈ 13.5 µM) | 32 (≈ 54.1 µM) |
| COc1ccc2nccc(-n3cc4c(n3)CCC(NC(=O)/C=C/c3cccc([N+](=O)[O-])c3)C4)c2n1 (centres unmarked) [Example 14, N-[2-(6-Methoxy-[1,5]naphthyridin-4-yl)-4,5,6,7-tetrahydro-2H-indazol-5-yl]-3-(3-nitro-phenyl)-acrylamide] | 2.13 | > 128 | 1 (≈ 2.13 µM) | 16 (≈ 34 µM) |
| COc1ccc2nccc(-n3cc4c(n3)CCC(N(Cc3ccccc3)Cc3ccc5c(c3)NC(=O)CS5)C4)c2n1 (centres unmarked) [Example 66, 6-({Benzyl-[2-(6-methoxy-[1,5]naphthyridin-4-yl)-4,5,6,7-tetrahydro-2H-indazol-5-yl]amino}-methyl)-4H-benzo[1,4]thiazin-3-one] | 3.55 | > 128 | 8 (≈ 14.2 µM) | > 128 |
| O=C1CSc2ccc(C(=O)NC3CCc4c(cnn4-c4cc(C(F)(F)F)nc5ccccc45)C3)cc2N1 (centres unmarked) [Example 97, 3-Oxo-3,4-dihydro-2H-benzo[1,4]thiazine-6-carboxylic acid [1-(2-trifluoromethyl-quinolin-4-yl)-4,5,6,7-tetrahydro-1H-indazol-5-yl]-amide] | > 30.6 | > 128 | > 128 | > 128 |
| COc1ccc2nccc(-n3cc4c(n3)CCC(NC(=O)/C=C/c3ccccn3)C4)c2n1 (centres unmarked) [Example 95, N-[2-(6-Methoxy-[1,5]naphthyridin-4-yl)-4,5,6,7-tetrahydro-2H-indazol-5-yl]-3-pyridin-2-yl-acrylamide] | > 37.5 | > 128 | 2 (≈ 4.69 µM) | 8 (≈ 18.8 µM) |
| COc1ccc2nccc(-n3cc4c(n3)CCC(NC(=O)/C=C/c3ccc(Cl)c(Cl)c3)C4)c2n1 (centres unmarked) [Example 92, 3-(3,4-Dichloro-phenyl)-N-[2-(6-methoxy-[1,5]naphthyridin-4-yl)-4,5,6,7-tetrahydro-2H-indazol-5-yl]-acrylamide] | > 32.4 | > 128 | 0.5 (≈ 1.01 µM) | > 128 |
| COc1ccc2nccc(-n3cc4c(n3)CCC(NCCCc3ccc(Cl)c(Cl)c3)C4)c2n1 (centres unmarked) [Example 48, [3-(3,4-Dichloro-phenyl)-propyl]-[2-(6-methoxy-[1,5]naphthyridin-4-yl)-4,5,6,7-tetrahydro-2H-indazol-5-yl]-amine] | > 66.3 | 32 (≈ 66.3 µM) | 0.25 (≈ 0.518 µM) | 1 (≈ 2.07 µM) |
| COc1ccc2nccc(-n3cc4c(n3)CCC(NC(=O)c3ccc(C)c([N+](=O)[O-])c3)C4)c2c1 (centres unmarked) [Example 111, N-[2-(6-Methoxy-quinolin-4-yl)-4,5,6,7-tetrahydro-2H-indazol-5-yl]-4-methyl-3-nitro-benzamide] | > 35 | > 128 | 0.25 (≈ 0.546 µM) | 4 (≈ 8.74 µM) |
| COc1ccc2nccc(-n3cc4c(n3)CCC(NCC(=O)c3ccc5c(c3)NC(=O)CO5)C4)c2c1 (centres unmarked) [Example 63, 6-{2-[2-(6-Methoxy-quinolin-4-yl)-4,5,6,7-tetrahydro-2H-indazol-5-ylamino]-acetyl}-4H-benzo[1,4]oxazin-3-one] | – | 6 (≈ 12.4 µM) | 0.1 (≈ 0.207 µM) | 0.8 (≈ 1.65 µM) |
| COc1ccc2nccc(-n3cc4c(n3)CCC(NC(=O)c3nc5ccccc5[nH]3)C4)c2c1 (centres unmarked) [Example 71, 1H-Benzoimidazole-2-carboxylic acid [2-(6-methoxy-quinolin-4-yl)-4,5,6,7-tetrahydro-2H-indazol-5-yl]-amide] | – | > 128 | 2 (≈ 4.56 µM) | 8 (≈ 18.2 µM) |
| COc1ccc2nccc(-n3cc4c(n3)CCC(NCc3ccc(N(C)C)c(C#N)c3F)C4)c2c1 (centres unmarked) [Example 126, 6-Dimethylamino-2-fluoro-3-{[2-(6-methoxy-quinolin-4-yl)-4,5,6,7-tetrahydro-2H-indazol-5-ylamino]-methyl}-benzonitrile] | – | > 128 | 1 (≈ 2.13 µM) | 2 (≈ 4.25 µM) |
| COc1ccc2nccc(-n3cc4c(n3)CCC(NCC(=O)NCc3ccccc3)C4)c2n1 (centres unmarked) [Example 84, N-Benzyl-2-[2-(6-methoxy-[1,5]naphthyridin-4-yl)-4,5,6,7-tetrahydro-2H-indazol-5-ylamino]-acetamide] | – | > 128 | 2 (≈ 4.52 µM) | 16 (≈ 36.2 µM) |
| COc1ccc2nccc(-n3cc4c(n3)CC(NC(=O)c3ccc5c(c3)NC(=O)CS5)CC4)c2c1 (centres unmarked) [Example 27, 3-Oxo-3,4-dihydro-2H-benzo[1,4]thiazine-6-carboxylic acid [2-(6-methoxy-quinolin-4-yl)-4,5,6,7-tetrahydro-2H-indazol-6-yl]-amide] | – | 4 (≈ 8.24 µM) | 0.125 (≈ 0.257 µM) | 4 (≈ 8.24 µM) |
| COc1ccc2nccc(-n3cc4c(n3)CCC(NC(=O)c3cc(NC(C)=O)ccc3Br)C4)c2n1 (centres unmarked) [Example 124, 5-Acetylamino-2-bromo-N-[2-(6-methoxy-[1,5]naphthyridin-4-yl)-4,5,6,7-tetrahydro-2H-indazol-5-yl]-benzamide] | – | > 128 | 4 (≈ 7.47 µM) | > 128 |
